Values joined by “and” are separate entries in the source; they are usually repeats but may differ in a detail not shown here. Equal values may be shown once.
Test system: 883617-216-R-J1-PDC complex spheroids, growth, % test/control
Assay: Anticancer human tumor 883617-216-R-J1-PDC patient-derived bladder carcinoma cell line growth inhibition [AhR]
Conditions: for viability, T/C: stronger effect = lower value
In short: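 Spheroids combined tumor cells with HUVEC endothelial cells and human MSCs as stroma. AhR antagonists were paired with standard or investigational drugs, each dosed in half-log steps down from near clinical Cmax, or from 10 microM where Cmax was unknown.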

[1] = curve of first compound, second compound 0.1 µM
[2] = curve of first compound, second compound 0.316 µM
[3] = curve of first compound, second compound 1 µM
[4] = curve of first compound, second compound 3.16 µM
[5] = curve of first compound, second compound 10 µM
[6] = second compound 0.1 µM, first compound 0.0316 µM
[7] = second compound 0.1 µM, first compound 0.1 µM
[8] = second compound 0.1 µM, first compound 0.316 µM
[9] = second compound 0.1 µM, first compound 1 µM
[10] = second compound 0.316 µM, first compound 0.0316 µM
[11] = second compound 0.316 µM, first compound 0.1 µM
[12] = second compound 0.316 µM, first compound 0.316 µM
[13] = second compound 0.316 µM, first compound 1 µM
[14] = second compound 1 µM, first compound 0.0316 µM
[15] = second compound 1 µM, first compound 0.1 µM
[16] = second compound 1 µM, first compound 0.316 µM
[17] = second compound 1 µM, first compound 1 µM
[18] = second compound 3.16 µM, first compound 0.0316 µM
[19] = second compound 3.16 µM, first compound 0.1 µM
[20] = second compound 3.16 µM, first compound 0.316 µM
[21] = second compound 3.16 µM, first compound 1 µM
[22] = second compound 10 µM, first compound 0.0316 µM
[23] = second compound 10 µM, first compound 0.1 µM
[24] = second compound 10 µM, first compound 0.316 µM
[25] = second compound 10 µM, first compound 1 µM
[26] = second compound 0.1 µM, first compound 3.16 µM
[27] = second compound 0.1 µM, first compound 10 µM
[28] = second compound 0.316 µM, first compound 3.16 µM
[29] = second compound 0.316 µM, first compound 10 µM
[30] = second compound 1 µM, first compound 3.16 µM
[31] = second compound 1 µM, first compound 10 µM
[32] = second compound 3.16 µM, first compound 3.16 µM
[33] = second compound 3.16 µM, first compound 10 µM
[34] = second compound 10 µM, first compound 3.16 µM
[35] = second compound 10 µM, first compound 10 µM
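Also: exposure lasted 7 days after dosing on day 3 of spheroid growth.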

With CC1COCCN1c1cc(-c2ccnn2C)c2ccnc(-c3ccn[nH]3)c2n1 (configuration not stated) + CC(CO)NC(=O)c1cc(-c2ccc(Cl)cc2)nn(-c2cnn(C)c2)c1=O the IC50 [1] was > 1 µM, the IC50 [2] was > 1 µM and the IC50 [3] was > 1 µM. For the same compound, the IC50 [4] was > 1 µM, the IC50 [5] was > 1 µM and the viability, T/C (second compound 0.1 µM, first compound 0.00316 µM) was 70.5%. The viability, T/C (second compound 0.1 µM, first compound 0.01 µM) was 80.7%, the viability, T/C [6] was 55.6% and the viability, T/C [7] was 87.4%. It also gave a viability, T/C [8] of 73.9%, a viability, T/C [9] of 56.8% and a viability, T/C (second compound 0.316 µM, first compound 0.00316 µM) of 80.9%. It also gave a viability, T/C (second compound 0.316 µM, first compound 0.01 µM) of 85.6%, a viability, T/C [10] of 88.2% and a viability, T/C [11] of 63.8%. The viability, T/C [12] was 48.5%, the viability, T/C [13] was 53.1% and the viability, T/C (second compound 1 µM, first compound 0.00316 µM) was 88.8%. For the same compound, the viability, T/C (second compound 1 µM, first compound 0.01 µM) was 82.5%, the viability, T/C [14] was 114% and the viability, T/C [15] was 100%. It also gave a viability, T/C [16] of 53.5%, a viability, T/C [17] of 54% and a viability, T/C (second compound 3.16 µM, first compound 0.00316 µM) of 58.3%. The viability, T/C (second compound 3.16 µM, first compound 0.01 µM) was 69.8%, the viability, T/C [18] was 72.8% and the viability, T/C [19] was 73.2%. For the same compound, the viability, T/C [20] was 61.7%, the viability, T/C [21] was 53.2% and the viability, T/C (second compound 10 µM, first compound 0.00316 µM) was 65.8%. The viability, T/C (second compound 10 µM, first compound 0.01 µM) was 64.2%, the viability, T/C [22] was 72.8% and the viability, T/C [23] was 53.8%. The viability, T/C [24] was 54.4% and the viability, T/C [25] was 72%.
For COc1cc(Nc2ncc3c(n2)-c2ccc(Cl)cc2C(c2c(F)cccc2OC)=NC3)ccc1C(=O)O + CC(CO)NC(=O)c1cc(-c2ccc(Cl)cc2)nn(-c2cnn(C)c2)c1=O, the IC50 [1] was > 10 µM, the IC50 [2] was > 10 µM and the IC50 [3] was > 10 µM. For the same compound, the IC50 [4] was > 10 µM, the IC50 [5] was > 10 µM and the viability, T/C [6] was 140%. The viability, T/C [7] was 128%, the viability, T/C [8] was 77.8% and the viability, T/C [9] was 97%. For the same compound, the viability, T/C [26] was 86.6%, the viability, T/C [27] was 120% and the viability, T/C [10] was 128%. It also gave a viability, T/C [11] of 85%, a viability, T/C [12] of 80.5% and a viability, T/C [13] of 87%. It also gave a viability, T/C [28] of 60.8%, a viability, T/C [29] of 95.6% and a viability, T/C [14] of 124%. It also gave a viability, T/C [15] of 123%, a viability, T/C [16] of 93.3% and a viability, T/C [17] of 48.3%. It also gave a viability, T/C [30] of 103%, a viability, T/C [31] of 101% and a viability, T/C [18] of 77%. For the same compound, the viability, T/C [19] was 103%, the viability, T/C [20] was 135% and the viability, T/C [21] was 105%. It also gave a viability, T/C [32] of 70.9%, a viability, T/C [33] of 70.6% and a viability, T/C [22] of 130%. The viability, T/C [23] was 71%, the viability, T/C [24] was 121% and the viability, T/C [25] was 125%. The viability, T/C [34] was 71.7% and the viability, T/C [35] was 88.4%.
CC1COCCN1c1cc(C2(S(C)(=N)=O)CC2)nc(-c2ccnc3[nH]ccc23)n1 (configuration not stated) + CC(CO)NC(=O)c1cc(-c2ccc(Cl)cc2)nn(-c2cnn(C)c2)c1=O was tested, and the IC50 [1] was > 10 µM, the IC50 [2] was > 10 µM and the IC50 [3] was > 10 µM. For the same compound, the IC50 [4] was > 10 µM, the IC50 [5] was > 10 µM and the viability, T/C [6] was 155%. For the same compound, the viability, T/C [7] was 133%, the viability, T/C [8] was 120% and the viability, T/C [9] was 78.7%. The viability, T/C [26] was 86.9%, the viability, T/C [27] was 108% and the viability, T/C [10] was 73.3%. For the same compound, the viability, T/C [11] was 143%, the viability, T/C [12] was 107% and the viability, T/C [13] was 56.3%. It also gave a viability, T/C [28] of 70.1%, a viability, T/C [29] of 72.1% and a viability, T/C [14] of 142%. It also gave a viability, T/C [15] of 102%, a viability, T/C [16] of 152% and a viability, T/C [17] of 121%. It also gave a viability, T/C [30] of 103%, a viability, T/C [31] of 77.5% and a viability, T/C [18] of 103%. For the same compound, the viability, T/C [19] was 94.4%, the viability, T/C [20] was 132% and the viability, T/C [21] was 132%. For the same compound, the viability, T/C [32] was 86.2%, the viability, T/C [33] was 66.5% and the viability, T/C [22] was 127%. The viability, T/C [23] was 101%, the viability, T/C [24] was 125% and the viability, T/C [25] was 153%. It also gave a viability, T/C [34] of 107% and a viability, T/C [35] of 114%.
With NS(=O)(=O)OCC1CC(n2ccc3c(NC4CCc5ccccc54)ncnc32)CC1O (configuration not stated) the viability, T/C (compound 0.0316 µM) was 154% and 163% and 90.4%, the viability, T/C (compound 0.1 µM) was 209% and 200% and 81.5% and the viability, T/C (compound 0.316 µM) was 214% and 242% and 83.6%. The viability, T/C (compound 1 µM) was 140% and 130% and 64%, the viability, T/C (compound 3.16 µM) was 48.6% and 34.8% and 33.6% and the viability, T/C (compound 10 µM) was 24.7% and 20.3% and 48.3%. For the same compound, the IC50 (curve of compound) was 3.12 µM and 2.45 µM and 2.01 µM.
